Data published in PMC8795197, “Safety and activity of WX-0593 (Iruplinalkib) in patients with ALK- or ROS1-rearranged advanced non-small cell lung cancer: a phase 1 dose-escalation and dose-expansion trial” (Signal Transduction and Targeted Therapy, 2022).
Entries after “also recorded” stand apart in the source; their conditions may differ.

System: advanced NSCLC patients with ALK or ROS1 rearrangement
Experiment: Phase 1 dose-expansion phase: antitumor activity (RECIST 1.1, investigators)
Type: in vivo, human
Details: for intracranial objective response rate: Baseline measurable CNS metastasis; for DOR, median (95% CI) / PFS, median (95% CI) / TTP, median (95% CI) / DCR (95% CI) / ORR (95% CI) / PFS, number of events (%): ALK-positive patients
Source text: Patients continued treatment until documented disease progression, unacceptable toxicity, withdrawal of consent, the start of a new anticancer treatment, death, loss of follow-up, or end of the study (whichever occurred first). Patients were permitted to continue treatment after progression if they were still experiencing clinical benefit, at the discretion of the investigator. Patients performed imaging evaluation at baseline, with computed tomography or magnetic resonance imaging of the chest, abdomen, pelvis, and brain. In the dose-escalation phase, the first efficacy evaluation was done after 3-week continuous administration of WX-0593 and every 6 weeks thereafter. […] AEs were assessed in all patients throughout this study and graded per the National Cancer Institute Common Terminology Criteria for Adverse Events version 4.03. In the dose-expansion phase, the primary endpoint was ORR assessed by investigators. Other key secondary endpoints included PFS, DCR, time to progression (TTP), DOR, intracranial response, and safety. Additionally, overall survival (OS) was assessed as a prespecified exploratory endpoint. ORR was defined as the proportion of patients who had best overall response, including CR or PR. PFS was calculated from the date of the first dose of WX-0593 to the date of documented disease progression or death (whichever occurred first). DCR was defined as the proportion of patients who had best overall response, including CR, PR, or SD, with a duration of at least 12 weeks. TTP was calculated from the date when the first dose of WX-0593 was given to first documented disease progression. […] OS was calculated from the date when the first dose of WX-0593 was administered to the date of death from any cause. Safety analysis was performed in the SS, which was comprised of all patients treated with one dose of WX-0593 and with safety data recorded. Efficacy analysis was performed in the FAS, which was defined as all patients treated with at least one dose of WX-0593. The PK analysis set included all patients treated with at least one dose of WX-0593 and with at least one evaluable PK sample. […] Descriptive statistics were carried out to summarize patients’ baseline characteristics and safety. […] All time-to-event data (PFS, TTP, DOR, and OS) and their corresponding 95% CIs were estimated by Kaplan–Meier methods. PK parameter analyses were done with Phoenix WinNonlin version 8.0. All other statistical analyses were conducted using SAS version 9.4.

[1] = ALK-rearranged, crizotinib as the only ALK TKI

## COc1cc(N2CCC3(CCN(C)CC3)CC2)ccc1Nc1ncc(Cl)c(Nc2ccccc2P(C)(C)=O)n1 [WX-0593]
120mg, ALK-rearranged patients
  objective response rate: 53.2% (25/47, 38.1-67.9%)
120mg, ALK-rearranged patients, ALK TKI naive
  objective response rate: 76.5% (13/17, 50.1-93.2%)
120mg, ALK-rearranged patients, ALK TKI naive, chemotherapy naïve
  objective response rate: 75.0%(6/8, 34.9-96.8%)
120mg, ALK-rearranged patients, ALK TKI naive, received chemotherapy before
  objective response rate: 77.8% (7/9, 40.0-97.2%)
120mg, ALK-rearranged patients, Crizotinib and other ALK TKIs
  objective response rate: 0 (0/2, 0-84.2%)
120mg, ALK-rearranged patients, Crizotinib only
  objective response rate: 44.4% (12/27, 25.5-64.7%)
120mg, ALK-rearranged patients, Other ALK TKIs
  objective response rate: 0 (0/1, 0-97.5%)
120mg, Baseline CNS metastasis
  objective response rate: 22.9% (8/35, 10.4-40.1%)
120mg, Baseline CNS metastasis, ALK TKI naive
  objective response rate: 23.1% (3/13, 5.0-53.8%)
120mg, Baseline CNS metastasis, Crizotinib only
  objective response rate: 25.0% (5/20, 8.7-49.1%)
120mg, Baseline CNS metastasis, Radiotherapy before
  objective response rate: 16.7% (2/12, 2.1-48.4%)
120mg, Baseline CNS metastasis, Radiotherapy naïve
  objective response rate: 26.1% (6/23, 10.2-48.4%)
120mg
  intracranial objective response rate: 45.5% (2/11, 16.7-76.6%)
120mg, ALK TKI naive
  intracranial objective response rate: 33.3% (1/3, 0.8-90.6%)
120mg, Crizotinib only
  intracranial objective response rate: 50.0% (4/8, 15.7-84.3%)
120mg, Radiotherapy before
  intracranial objective response rate: 28.6% (2/7, 3.7-71.0%)
120mg, Radiotherapy naïve
  intracranial objective response rate: 75.0% (3/4, 19.4-99.4%)
120mg, Prior ALK TKI treatment: Crizotinib and other ALK TKI
  objective response rate: 0 (0/2, 0-84.2%)
120mg, Prior ALK TKI treatment: Crizotinib only
  objective response rate: 41.4% (12/29, 23.5-61.1%)
120mg, ROS1-rearranged patients
  objective response rate: 0 (0/3, 0-70.8%)
120mg, ROS1-rearranged patients, Crizotinib naive
  objective response rate: 0 (0/1, 0-97.5%)
120mg, ROS1-rearranged patients, Received Crizotinib before
  objective response rate: 0 (0/2, 0-84.2%)
120mg, dose expansion phase, Prior ALK TKI treatment: ALK TKI naive
  objective response rate: 72.2% (13/18, 46.5-90.3%)
180mg, ALK-rearranged patients
  objective response rate: 63.6% (28/44, 47.8-77.6%)
180mg, ALK-rearranged patients, ALK TKI naive
  objective response rate: 76.2% (16/21, 52.8-91.8%)
180mg, ALK-rearranged patients, ALK TKI naive, chemotherapy naïve
  objective response rate: 91.7% (11/12, 61.5-99.8%)
180mg, ALK-rearranged patients, ALK TKI naive, received chemotherapy before
  objective response rate: 55.6% (5/9, 21.2-86.3%)
180mg, ALK-rearranged patients, Crizotinib and other ALK TKIs
  objective response rate: 66.7% (2/3, 9.4-99.2%)
180mg, ALK-rearranged patients, Crizotinib only
  objective response rate: 47.4% (9/19, 24.4-71.1%)
180mg, ALK-rearranged patients, Other ALK TKIs
  objective response rate: 100% (1/1, 2.5-100.0%)
180mg, Baseline CNS metastasis, ALK TKI naive
  objective response rate: 28.6% (2/7, 3.7-71.0%)
180mg, Baseline CNS metastasis, Crizotinib only
  objective response rate: 15.4% (2/13, 1.9-45.4%)
180mg, Baseline CNS metastasis, Radiotherapy before
  objective response rate: 0 (0/7, 0-41.0%)
180mg, Baseline CNS metastasis, Radiotherapy naïve
  objective response rate: 31.3% (5/16, 11.0-58.7%)
180mg
  intracranial objective response rate: 50.0% (2/4, 6.8-93.2%)
180mg, ALK TKI naive
  intracranial objective response rate: 100% (1/1, 2.5-100%)
180mg, Crizotinib only
  intracranial objective response rate: 50.0% (1/2, 1.3-98.7%)
180mg, Radiotherapy naïve
  intracranial objective response rate: 31.3% (5/16, 11.0-58.7%)
180mg, Prior ALK TKI treatment: Crizotinib and other ALK TKI
  objective response rate: 66.7% (2/3, 9.4-99.2%)
180mg, Prior ALK TKI treatment: Crizotinib only
  objective response rate: 42.9% (9/21, 21.8-66.0%)
180mg, ROS1-rearranged patients
  objective response rate: 66.7% (4/6, 22.3-95.7%)
180mg, ROS1-rearranged patients, Crizotinib naive
  objective response rate: 100% (4/4, 39.8-100%)
180mg, ROS1-rearranged patients, Received Crizotinib before
  objective response rate: 0 (0/2, 0-84.2%)
180mg, dose expansion phase, Prior ALK TKI treatment: ALK TKI naive
  objective response rate: 79.2% (19/24, 57.8-92.9%)
ALK TKI naive
  DCR: 92.9%
  ORR: 76.2%
  median PFS: not reached
120 mg
  DOR, median (95% CI): NR (5.52, NR)
  PFS, median (95% CI): NR (6.87, NR)
  TTP, median (95% CI): NR (6.87, NR)
120 mg (n=47)
  DCR (95% CI): 83.0% (69.2%, 92.4%)
  ORR (95% CI): 53.2% (38.1%, 67.9%)
  PFS, number of events (%): 12 (25.5%)
180 mg
  DOR, median (95% CI): NR (5.49, NR)
  PFS, median (95% CI): NR (NR, NR)
  TTP, median (95% CI): NR (NR, NR)
180 mg (n=44)
  DCR (95% CI): 88.6% (75.4%, 96.2%)
  ORR (95% CI): 63.6% (47.8%, 77.6%)
  PFS, number of events (%): 8 (18.2%)
total
  DOR, median (95% CI): NR (5.65, NR)
  PFS, median (95% CI): not reached (95% CI 6.93 months to NR); also recorded: NR (6.93, NR)
  TTP, median (95% CI): NR (6.93, NR)
Total (n=91)
  PFS, number of events (%): 20 (22.0%)
ALK-rearranged patients (n = 91)
  patients who achieved SD: Twenty-five
ALK-rearranged, ALK TKI naive
  ORR: 76.3%
ALK-rearranged, ALK TKI naive, chemotherapy-naive
  ORR: 85.0%
ALK-rearranged, ALK TKI naive, received chemotherapy
  ORR: 66.7%
[1]
  ORR: 45.7%
  median PFS: 6.9 months
FAS n = 99
  patients who achieved PR, n (%): 56 (56.6%)
  patients with progressive disease, n (%): 8 (8.1%)
  patients with stable disease (SD), n (%): 27 (27.3%)
